Measured values as given in patent publication US9968592B2, “Dyslipidemia therapeutic agent” (KOWA COMPANY, LTD., priority 2014, dated 2018).

Test system: Male hamsters (Slc:Syrian)
Experiment: Effect on LDL-C of hamster, oral administration once per day for two weeks
Format: in vivo
Conditions: single administration, vs control (Dunnett)
From the text: Male hamsters (6-week-old, Slc:Syrian, Japan SLC, Inc.) were used for an experiment. Blood was collected from the jugular vein under satiation. The hamsters were divided into six groups (N=8) based on TG and TC in plasma and a body weight. For two weeks from the next day, each of a solvent (0.5% methylcellulose aqueous solution: MC), compound A alone, compound B alone, and combination of compound A and compound B was orally administered once per day. For comparison, for two weeks, each of compound C alone and combination of compound A and compound C was orally administered once per day. On the final day of administration of the pharmaceutical agent, blood was collected under fasting conditions for four hours and under isoflurane anesthesia, and LDL-C in plasma was measured using high performance liquid chromatography by a method of Usui et • a1. (Usui S et al. Clin Chem., 46, 63-72, 2000).
Group 2: 0.3 mg/kg of compound A
Group 3: 10 mg/kg of compound B
Group 4: 0.3 mg/kg of compound A and 10 mg/kg of compound B
Group 5: 10 mg/kg of compound C
Group 6: 0.3 mg/kg of compound A and 10 mg/kg of compound C
Results were presented by an average value±standard deviation. Comparison between the control group and each of the pharmaceutical agent administration groups was performed by a multiple comparison test of Dunnett, and a risk rate of less than 5% was determined to have a significant difference.

[1] = 10 mg/kg orally once per day for two weeks

| SMILES | LDL-C in plasma (0.3 mg/kg orally once per day for two weeks) | LDL-C in plasma [1] |
| --- | --- | --- |
| CC[C@@H](Oc1cccc(CN(CCCOc2ccc(OC)cc2)c2nc3ccccc3o2)c1)C(=O)O [compound A, (R)-2-[3-[[N-(benzoxazol-2-yl)-N-3-(4-methoxyphenoxy)propyl]aminomethyl]phenoxy]butyric acid] | a clear influence on LDL-C was not observed |  |
| CCN(C[C@H]1CC[C@H](CC(=O)O)CC1)c1ccc(C(F)(F)F)cc1CN(c1ncc(OCCS(C)(=O)=O)cn1)[C@@H](C)c1cc(C(F)(F)F)cc(C(F)(F)F)c1 [compound B, (S)-trans-{4-[({2-[({1-[3,5-bis(trifluoromethyl)phenyl]ethyl}{5-[2-(methylsulfonyl)ethoxy]pyrimidin-2-yl}amino)methyl]-4-(trifluoromethyl)phenyl}(ethyl)amino)methyl]cyclohexyl} acetic acid] |  | a clear influence on LDL-C was not observed |
| COc1cc(F)c(C(C)C)cc1-c1ccc(C(F)(F)F)cc1CN1C(=O)O[C@H](c2cc(C(F)(F)F)cc(C(F)(F)F)c2)[C@@H]1C [compound C, [4S,5R]-5-[3,5-bis(trifluoromethyl)phenyl]-3-{[4′-fluoro-2′-methoxy-5′-(propan-2-yl)-4-(trifluoromethyl)[1,1′-biphenyl]-2-yl]methyl}-4-methyl-1,3-oxazolidin-2-one, reference compound] |  | a clear influence on LDL-C was not observed |
